Results taken from patent US10329249B1, “Sulindac derivatives” (KING SAUD UNIVERSITY, priority 2018, dated 2019).

Tests used:
[1] = DPPH free radical scavenging (antioxidant activity); settings: 100 μg/mL compound in 3 mL 0.004% DPPH, 520 nm after 30 min; mean of three replicates ±SD
Method: The antioxidant activity was measured based on the scavenging activity of the stable DPPH free radical. 100 μg/mL of the twenty-five sulindac derivative compounds were added to 3 mL 0.004% DPPH solution. Methanol was added to 3 mL 0.004% DPPH solution for the control sample. Absorbance was determined at 520 nm after 30 min. Butylated hydroxytoluene (BHT) was used as a reference drug. The percent inhibition was calculated by the equation:
[formula] where At is the absorbance of the compound and A0 is the absorbance of the control.

SMILES | Scavenging Effect [1] | melting point
Cc1cc(C(C)(C)C)c(O)c(C(C)(C)C)c1 [BHT, Butylated hydroxytoluene, reference compound] | 90.6 ± 3.83% | 
CC1=C(CC(=O)N/N=C\c2ccccc2[N+](=O)[O-])c2cc(F)ccc2/C1=C\c1ccc([S+](C)[O-])cc1 (stereo not drawn) [Compound 1, N′-(2-nitrobenzylidene)-2-((1Z)-1-(4-(methylsulfinyl)benzylidene)-5-fluoro-2-methyl-1H-inden-3-yl)acetohydrazide] | 18.53 ± 4.86% | 148 to 150 °C
CC1=C(CC(=O)N/N=C\c2ccc([N+](=O)[O-])cc2)c2cc(F)ccc2/C1=C\c1ccc([S+](C)[O-])cc1 (stereo not drawn) [Compound 2, N′-(4-nitrobenzylidene)-2-((1Z)-1-(4-(methylsulfinyl)benzylidene)-5-fluoro-2-methyl-1H-inden-3-yl)acetohydrazide] | 19.26 ± 5.32% | 220 to 222 °C
CC1=C(CC(=O)N/N=C\c2ccccc2)c2cc(F)ccc2/C1=C\c1ccc([S+](C)[O-])cc1 (stereo not drawn) [Compound 3] | 67.40 ± 9.25% | 138 to 140 °C
CC1=C(CC(=O)N/N=C\c2ccc(Cl)cc2)c2cc(F)ccc2/C1=C\c1ccc([S+](C)[O-])cc1 (stereo not drawn) [Compound 4, N′-(4-chlorobenzylidene)-2-((1Z)-1-(4-(methylsulfinyl)benzylidene)-5-fluoro-2-methyl-1H-inden-3-yl)acetohydrazide] | 39.86 ± 10.80% | 228 to 230 °C
CC1=C(CC(=O)N/N=C\c2cccc(O)c2)c2cc(F)ccc2/C1=C\c1ccc([S+](C)[O-])cc1 (stereo not drawn) [Compound 5] | 42.20 ± 13.20% | 
COc1cccc(/C=N\NC(=O)CC2=C(C)/C(=C/c3ccc([S+](C)[O-])cc3)c3ccc(F)cc32)c1 (stereo not drawn) [Compound 6] | 71.03 ± 5.31% | 
CC1=C(CC(=O)N/N=C\c2cccc([N+](=O)[O-])c2)c2cc(F)ccc2/C1=C\c1ccc([S+](C)[O-])cc1 (stereo not drawn) [Compound 7] | 49.36 ± 5.57% | 165 to 167 °C
COc1cc(OC)c(OC)cc1/C=N\NC(=O)CC1=C(C)/C(=C/c2ccc([S+](C)[O-])cc2)c2ccc(F)cc21 (stereo not drawn) [Compound 9] | 78.97 ± 9.36% | 233 to 235 °C
COc1cc(/C=N\NC(=O)CC2=C(C)/C(=C/c3ccc([S+](C)[O-])cc3)c3ccc(F)cc32)cc(OC)c1OC (stereo not drawn) [Compound 10, N′-(3,4,5-trimethoxybenzylidene)-2-((1Z)-1-(4-(methylsulfinyl)benzylidene)-5-fluoro-2-methyl-1H-inden-3-yl)acetohydrazide] | 42.33 ± 18.38% | 165 to 167 °C
CC1=C(CC(=O)N/N=C\c2ccc(O)cc2)c2cc(F)ccc2/C1=C\c1ccc([S+](C)[O-])cc1 (stereo not drawn) [Compound 11, N′-(4-hydroxybenzylidene)-2-((1Z)-1-(4-(methylsulfinyl)benzylidene)-5-fluoro-2-methyl-1H-inden-3-yl)acetohydrazide] | 45.06 ± 22.57% | 
COc1ccccc1/C=N\NC(=O)CC1=C(C)/C(=C/c2ccc([S+](C)[O-])cc2)c2ccc(F)cc21 (stereo not drawn) [Compound 12, N′-(2-methoxybenzylidene)-2-((1Z)-1-(4-(methylsulfinyl)benzylidene)-5-fluoro-2-methyl-1H-inden-3-yl) acetohydrazide] | 39.73 ± 15.65% | 
COc1ccc(/C=N\NC(=O)CC2=C(C)/C(=C/c3ccc([S+](C)[O-])cc3)c3ccc(F)cc32)c(OC)c1 (stereo not drawn) [Compound 13, N′-(2,4-dimethoxybenzylidene)-2-((1Z)-1-(4-(methylsulfinyl)benzylidene)-5-fluoro-2-methyl-1H-inden-3-yl)acetohydrazide] | 23.07 ± 6.95% | 185 to 187 °C
COc1cccc(/C=N\NC(=O)CC2=C(C)/C(=C/c3ccc([S+](C)[O-])cc3)c3ccc(F)cc32)c1OC (stereo not drawn) [Compound 14, N′-(2,3-dimethoxybenzylidene)-2-((1Z)-1-(4-(methylsulfinyl)benzylidene)-5-fluoro-2-methyl-1H-inden-3-yl)acetohydrazide] | 62.93 ± 6.72% | 203 to 205 °C
COc1ccc(/C=N\NC(=O)CC2=C(C)/C(=C/c3ccc([S+](C)[O-])cc3)c3ccc(F)cc32)cc1OC (stereo not drawn) [Compound 15, N′-(3,4-dimethoxybenzylidene)-2-((1Z)-1-(4-(methylsulfinyl)benzylidene)-5-fluoro-2-methyl-1H-inden-3-yl)acetohydrazide] | 40.60 ± 14.40% | 230 to 232 °C
COc1cc(OC)c(/C=N\NC(=O)CC2=C(C)/C(=C/c3ccc([S+](C)[O-])cc3)c3ccc(F)cc32)c(OC)c1 (stereo not drawn) [Compound 16, N′-(2,4,6-timethoxybenzylidene)-2-((1Z)-1-(4-(methylsulfinyl)benzylidene)-5-fluoro-2-methyl-1H-inden-3-yl)acetohydrazide] | 30.80 ± 2.50% | 193 to 195 °C
COc1ccc(/C=N\NC(=O)CC2=C(C)/C(=C/c3ccc([S+](C)[O-])cc3)c3ccc(F)cc32)c(OC)c1OC (stereo not drawn) [Compound 17, N′-(2,3,4-timethoxybenzylidene)-2-((1Z)-1-(4-(methylsulfinyl)benzylidene)-5-fluoro-2-methyl-1H-inden-3-yl)acetohydrazide] | 63.56 ± 0.47% | 185 to 187 °C
CCOc1ccc(/C=N\NC(=O)CC2=C(C)/C(=C/c3ccc([S+](C)[O-])cc3)c3ccc(F)cc32)cc1OC (stereo not drawn) [Compound 18, N′-(3-methoxy-4-ethoxybenzylidene)-2-((1Z)-1-(4-(methylsulfinyl)benzylidene)-5-fluoro-2-methyl-1H-inden-3-yl)acetohydrazide] |  | 158 to 160 °C
COc1cc(/C=N\NC(=O)CC2=C(C)/C(=C/c3ccc([S+](C)[O-])cc3)c3ccc(F)cc32)cc(OC)c1O (stereo not drawn) [Compound 19, N′-(3,5-dimethoxy-4-hydroxybenzylidene)-2-((1Z)-1-(4-(methylsulfinyl)benzylidene)-5-fluoro-2-methyl-1H-inden-3-yl)acetohydrazide] |  | 218 to 220 °C
CCOc1cc(/C=N\NC(=O)CC2=C(C)/C(=C/c3ccc([S+](C)[O-])cc3)c3ccc(F)cc32)ccc1O (stereo not drawn) [Compound 20, N′-(3-ethoxy-4-hydroxybenzylidene)-2-((1Z)-1-(4-(methylsulfinyl)benzylidene)-5-fluoro-2-methyl-1H-inden-3-yl)acetohydrazide] | 35.50 ± 9.05% | 193 to 195 °C
CC1=C(CC(=O)N/N=C\c2cc(O)ccc2O)c2cc(F)ccc2/C1=C\c1ccc([S+](C)[O-])cc1 (stereo not drawn) [Compound 21, N′-(2,5-dihydroxybenzylidene)-2-((1Z)-1-(4-(methylsulfinyl)benzylidene)-5-fluoro-2-methyl-1H-inden-3-yl)acetohydrazide] | 38.10 ± 10.92% | 180 to 182 °C
COc1ccc(/C=N\NC(=O)CC2=C(C)/C(=C/c3ccc([S+](C)[O-])cc3)c3ccc(F)cc32)cc1O (stereo not drawn) [Compound 22, N′-(3-hydroxy-4-methoxybenzylidene)-2-((1Z)-1-(4-(methylsulfinyl)benzylidene)-5-fluoro-2-methyl-1H-inden-3-yl)acetohydrazide] | 51.40 ± 16.66% | 208 to 210 °C
CC1=C(CC(=O)N/N=C\c2cccc(O)c2O)c2cc(F)ccc2/C1=C\c1ccc([S+](C)[O-])cc1 (stereo not drawn) [Compound 23, N′-(2,3-dihydroxybenzylidene)-2-((1Z)-1-(4-(methylsulfinyl)benzylidene)-5-fluoro-2-methyl-1H-inden-3-yl)acetohydrazide] | 33.10 ± 8.41% | 
COc1cccc(/C=N\NC(=O)CC2=C(C)/C(=C/c3ccc([S+](C)[O-])cc3)c3ccc(F)cc32)c1O (stereo not drawn) [Compound 24] | 27.66 ± 2.12% | 210 to 212 °C
CC1=C(CC(=O)N/N=C\c2ccc(O)c(O)c2O)c2cc(F)ccc2/C1=C\c1ccc([S+](C)[O-])cc1 (stereo not drawn) [Compound 25, N′-(2,3,4-trihydroxybenzylidene)-2-((1Z)-1-(4-(methylsulfinyl)benzylidene)-5-fluoro-2-methyl-1H-inden-3-yl)acetohydrazide] | 30.06 ± 3.30% | 195 to 197 °C
